Earlier results as cited in patent publication US12414928B2, “Viral inactivation spray and gargling formulation” (priority 2021, dated 2025).

What was measured:
[1] = tested on: enveloped virus; settings: in vitro, pH 4.0
[2] = tested on: coronavirus disease 2019 (COVID-19)

Structure (SMILES)	enveloped virus inactivation [1]	virus inactivation [2]
N=C(N)NCCC[C@H](N)C(=O)O [L-Arginine]	5 logs reduction	
Cl [Hydrochloric Acid]		100%
